PubChem BioAssay AID2060504 (Molecular Pharmacology Branch, DTP, NCI, 2025)

Test system: 636577-100-R-J1-PDC complex spheroid viability
Test: Anticancer human tumor 636577-100-R-J1-PDC patient-derived endometrial adenocarcinoma cell line growth inhibition [GQUAD]
Conditions: for IC50: curve of first compound; for viability, T/C: stronger effect = lower value
How it was run: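 Tumor cells were grown as complex spheroids with HUVEC endothelial cells and mesenchymal stem cells as stroma. G-quadruplex stabilizers were combined with targeted agents over half-log dilutions from near the clinical Cmax, or from 10 microM.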

[1] = second compound 0.0316 µM, first compound 0.0316 µM
[2] = second compound 0.0316 µM, first compound 0.1 µM
[3] = second compound 0.0316 µM, first compound 0.316 µM
[4] = second compound 0.0316 µM, first compound 1 µM
[5] = second compound 0.0316 µM, first compound 3.16 µM
[6] = second compound 0.0316 µM, first compound 10 µM
[7] = second compound 0.1 µM, first compound 0.0316 µM
[8] = second compound 0.1 µM, first compound 0.1 µM
[9] = second compound 0.1 µM, first compound 0.316 µM
[10] = second compound 0.1 µM, first compound 1 µM
[11] = second compound 0.1 µM, first compound 3.16 µM
[12] = second compound 0.1 µM, first compound 10 µM
[13] = second compound 0.316 µM, first compound 0.0316 µM
[14] = second compound 0.316 µM, first compound 0.1 µM
[15] = second compound 0.316 µM, first compound 0.316 µM
[16] = second compound 0.316 µM, first compound 1 µM
[17] = second compound 0.316 µM, first compound 3.16 µM
[18] = second compound 0.316 µM, first compound 10 µM
[19] = second compound 1 µM, first compound 0.0316 µM
[20] = second compound 1 µM, first compound 0.1 µM
[21] = second compound 1 µM, first compound 0.316 µM
[22] = second compound 1 µM, first compound 1 µM
[23] = second compound 1 µM, first compound 3.16 µM
[24] = second compound 1 µM, first compound 10 µM
[25] = second compound 3.16 µM, first compound 0.0316 µM
[26] = second compound 3.16 µM, first compound 0.1 µM
[27] = second compound 3.16 µM, first compound 0.316 µM
[28] = second compound 3.16 µM, first compound 1 µM
[29] = second compound 3.16 µM, first compound 3.16 µM
[30] = second compound 3.16 µM, first compound 10 µM
[31] = second compound 10 µM, first compound 0.0316 µM
[32] = second compound 10 µM, first compound 0.1 µM
[33] = second compound 10 µM, first compound 0.316 µM
[34] = second compound 10 µM, first compound 1 µM
[35] = second compound 10 µM, first compound 3.16 µM
[36] = second compound 10 µM, first compound 10 µM
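Note: viability read after seven days of drug exposure.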
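Throughout, for viability, T/C: luminescence signal used as a proxy for viable cells; 100% = DMSO vehicle control wells.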

CC1COCCN1c1cc(-c2ccnn2C)c2ccnc(-c3ccn[nH]3)c2n1 (stereo unspecified) + Cc1cnc(CNC(=O)c2c(=O)c3ccc(N4CCCN(C)CC4)nc3n3c2sc2ccccc23)cn1
IC50 (second compound 0.0316 µM): < 31.6 nM
IC50 (second compound 0.1 µM): < 31.6 nM
IC50 (second compound 0.316 µM): < 31.6 nM
IC50 (second compound 1 µM): < 31.6 nM
IC50 (second compound 3.16 µM): < 31.6 nM
IC50 (second compound 10 µM): < 31.6 nM
viability, T/C [1]: 31.9%
viability, T/C [2]: 20.2%
viability, T/C [3]: 18.4%
viability, T/C [4]: 9.61%
viability, T/C [5]: 5.71%
viability, T/C [6]: 3.77%
viability, T/C [7]: 22.7%
viability, T/C [8]: 19.2%
viability, T/C [9]: 17.2%
viability, T/C [10]: 11.2%
viability, T/C [11]: 6.18%
viability, T/C [12]: 3.47%
viability, T/C [13]: 15.1%
viability, T/C [14]: 19.7%
viability, T/C [15]: 17.7%
viability, T/C [16]: 12.5%
viability, T/C [17]: 6.51%
viability, T/C [18]: 2.82%
viability, T/C [19]: 17.9%
viability, T/C [20]: 18.9%
viability, T/C [21]: 15.6%
viability, T/C [22]: 14.7%
viability, T/C [23]: 7.08%
viability, T/C [24]: 3.42%
viability, T/C [25]: 18.9%
viability, T/C [26]: 17.4%
viability, T/C [27]: 16.8%
viability, T/C [28]: 14%
viability, T/C [29]: 7.38%
viability, T/C [30]: 3.36%
viability, T/C [31]: 16.8%
viability, T/C [32]: 16.6%
viability, T/C [33]: 17.2%
viability, T/C [34]: 10.1%
viability, T/C [35]: 6.54%
viability, T/C [36]: 3.1%

COc1cc(C2c3cc4c(cc3C(OC3OC5COC(C)OC5C(O)C3O)C3COC(=O)C23)OCO4)cc(OC)c1O (stereo unspecified) + Cc1[nH]c2ccc(F)cc2c1-c1nc2c3cccnc3c3ncccc3c2[nH]1
IC50 (second compound 0.0316 µM): 86.7 nM
IC50 (second compound 0.1 µM): 68.8 nM
IC50 (second compound 0.316 µM): 85.8 nM
IC50 (second compound 1 µM): 58.8 nM
IC50 (second compound 3.16 µM): < 31.6 nM
IC50 (second compound 10 µM): 36.8 nM
viability, T/C [1]: 80.6%
viability, T/C [2]: 45.6%
viability, T/C [3]: 24.1%
viability, T/C [4]: 16.1%
viability, T/C [5]: 16%
viability, T/C [6]: 14%
viability, T/C [7]: 68.4%
viability, T/C [8]: 41.2%
viability, T/C [9]: 23.4%
viability, T/C [10]: 17.1%
viability, T/C [11]: 17.5%
viability, T/C [12]: 13.9%
viability, T/C [13]: 71.5%
viability, T/C [14]: 46.7%
viability, T/C [15]: 21.1%
viability, T/C [16]: 16.8%
viability, T/C [17]: 16.8%
viability, T/C [18]: 14.2%
viability, T/C [19]: 65.3%
viability, T/C [20]: 37.2%
viability, T/C [21]: 21.4%
viability, T/C [22]: 19.9%
viability, T/C [23]: 18%
viability, T/C [24]: 13.8%
viability, T/C [25]: 30%
viability, T/C [26]: 23.9%
viability, T/C [27]: 21%
viability, T/C [28]: 18.5%
viability, T/C [29]: 17.8%
viability, T/C [30]: 14.1%
viability, T/C [31]: 52.5%
viability, T/C [32]: 34.6%
viability, T/C [33]: 21.9%
viability, T/C [34]: 19.1%
viability, T/C [35]: 18.3%
viability, T/C [36]: 15.1%

O=C(NO)c1cnc(N2CCN(S(=O)(=O)c3ccc4ccccc4c3)CC2)nc1 + Cc1cnc(CNC(=O)c2c(=O)c3ccc(N4CCCN(C)CC4)nc3n3c2sc2ccccc23)cn1
IC50 (second compound 0.0316 µM): < 31.6 nM
IC50 (second compound 0.1 µM): < 31.6 nM
IC50 (second compound 0.316 µM): < 31.6 nM
IC50 (second compound 1 µM): < 31.6 nM
IC50 (second compound 3.16 µM): < 31.6 nM
IC50 (second compound 10 µM): < 31.6 nM
viability, T/C [1]: 29.4%
viability, T/C [2]: 20.2%
viability, T/C [3]: 6.22%
viability, T/C [4]: 5.24%
viability, T/C [5]: 0.21%
viability, T/C [6]: 0.09%
viability, T/C [7]: 24.2%
viability, T/C [8]: 17.7%
viability, T/C [9]: 6.24%
viability, T/C [10]: 5.27%
viability, T/C [11]: 0.47%
viability, T/C [12]: 0.08%
viability, T/C [13]: 20%
viability, T/C [14]: 15.8%
viability, T/C [15]: 6.06%
viability, T/C [16]: 4.96%
viability, T/C [17]: 0.17%
viability, T/C [18]: 0.07%
viability, T/C [19]: 21.5%
viability, T/C [20]: 16.8%
viability, T/C [21]: 6.11%
viability, T/C [22]: 6.97%
viability, T/C [23]: 0.05%
viability, T/C [24]: 0.07%
viability, T/C [25]: 16.3%
viability, T/C [26]: 17.7%
viability, T/C [27]: 9.78%
viability, T/C [28]: 3.81%
viability, T/C [29]: 0.06%
viability, T/C [30]: 0.08%
viability, T/C [31]: 21.6%
viability, T/C [32]: 16.5%
viability, T/C [33]: 10.8%
viability, T/C [34]: 0.08%
viability, T/C [35]: 0.09%
viability, T/C [36]: 0.11%
